From PubChem BioAssay (NCI)
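Exposure lasted 48 hours, with cells grown in 96-well plates and compounds tested at five concentrations. At the GI50, growth is halved. TGI: total growth inhibition.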

Key:
Test in all cases: growth of human tumour cells (NCI), 48 h
786-0 renal = system: 786-0 renal
A498 renal = system: A498 renal
A549 NSCLC = system: A549 NSCLC
ACHN renal = system: ACHN renal
BT-549 breast = system: BT-549 breast
CAKI-1 renal = system: CAKI-1 renal
CCRF-CEM leukemia = system: CCRF-CEM leukemia
COLO 205 colon = system: COLO 205 colon
DU-145 prostate = system: DU-145 prostate
EKVX NSCLC = system: EKVX NSCLC
HCC-2998 colon = system: HCC-2998 colon
HCT-15 colon = system: HCT-15 colon
HL-60(TB) leukemia = system: HL-60(TB) leukemia
HOP-62 NSCLC = system: HOP-62 NSCLC
HOP-92 NSCLC = system: HOP-92 NSCLC
HS 578T breast = system: HS 578T breast
HT29 colon = system: HT29 colon
IGROV1 ovarian = system: IGROV1 ovarian
K-562 leukemia = system: K-562 leukemia
KM12 colon = system: KM12 colon
LOX IMVI melanoma = system: LOX IMVI melanoma
M14 melanoma = system: M14 melanoma
MALME-3M melanoma = system: MALME-3M melanoma
MCF7 breast = system: MCF7 breast
MDA-MB-231 breast = system: MDA-MB-231 breast
MDA-MB-435 = system: MDA-MB-435
MOLT-4 leukemia = system: MOLT-4 leukemia
NCI-H226 lung = system: NCI-H226 lung
NCI-H23 lung = system: NCI-H23 lung
NCI-H460 lung = system: NCI-H460 lung
NCI-H522 lung = system: NCI-H522 lung
NCI/ADR-RES ovarian = system: NCI/ADR-RES ovarian
OVCAR-4 ovarian = system: OVCAR-4 ovarian
OVCAR-5 ovarian = system: OVCAR-5 ovarian
PC-3 prostate = system: PC-3 prostate
RPMI-8226 leukemia = system: RPMI-8226 leukemia
RXF 393 renal = system: RXF 393 renal
SF-268 CNS = system: SF-268 CNS
SF-295 CNS = system: SF-295 CNS
SF-539 CNS = system: SF-539 CNS
SK-MEL-2 melanoma = system: SK-MEL-2 melanoma
SK-MEL-28 melanoma = system: SK-MEL-28 melanoma
SK-MEL-5 melanoma = system: SK-MEL-5 melanoma
SK-OV-3 ovarian = system: SK-OV-3 ovarian
SN12C renal = system: SN12C renal
SNB-19 CNS = system: SNB-19 CNS
SNB-75 CNS = system: SNB-75 CNS
SR leukemia = system: SR leukemia
SW-620 colon = system: SW-620 colon
TK-10 renal = system: TK-10 renal
U251 CNS = system: U251 CNS
UACC-257 melanoma = system: UACC-257 melanoma
UACC-62 melanoma = system: UACC-62 melanoma
UO-31 renal = system: UO-31 renal

CC1(C)CC[C@]23CC[C@]4(C)[C@H](CC[C@@H]5[C@@]6(C)CCCN(CO)C(C)(C)[C@@H]6CC[C@]54C)[C@H]2[C@H]1OC3
GI50 (786-0 renal): 1.84 µM | TGI (786-0 renal): 3.4 µM | GI50 (A498 renal): 12 µM | TGI (A498 renal): 25.6 µM | GI50 (A549 NSCLC): 2.76 µM | TGI (A549 NSCLC): 8.98 µM | GI50 (ACHN renal): 1.87 µM | TGI (ACHN renal): 3.6 µM | GI50 (BT-549 breast): 8.31 µM | TGI (BT-549 breast): 26 µM | GI50 (CAKI-1 renal): 1.54 µM | TGI (CAKI-1 renal): 3.3 µM | GI50 (CCRF-CEM leukemia): 3.49 µM | TGI (CCRF-CEM leukemia): > 100 µM | GI50 (COLO 205 colon): 1.7 µM | TGI (COLO 205 colon): 3.35 µM | GI50 (DU-145 prostate): 3 µM | TGI (DU-145 prostate): 8.95 µM | GI50 (EKVX NSCLC): 5.7 µM | TGI (EKVX NSCLC): 21.3 µM | GI50 (HCC-2998 colon): 1.76 µM | TGI (HCC-2998 colon): 3.35 µM | GI50 (HCT-15 colon): 1.75 µM | TGI (HCT-15 colon): 3.71 µM | GI50 (HL-60(TB) leukemia): 2.01 µM | TGI (HL-60(TB) leukemia): 5.07 µM | GI50 (HOP-62 NSCLC): 2.91 µM | TGI (HOP-62 NSCLC): 12.4 µM | GI50 (HOP-92 NSCLC): 1.68 µM | TGI (HOP-92 NSCLC): 4.75 µM | GI50 (HS 578T breast): 3.32 µM | TGI (HS 578T breast): 17.1 µM | GI50 (HT29 colon): 1.86 µM | TGI (HT29 colon): 3.86 µM | GI50 (IGROV1 ovarian): 1.91 µM | TGI (IGROV1 ovarian): 4 µM | GI50 (K-562 leukemia): 2.25 µM | TGI (K-562 leukemia): > 100 µM | GI50 (KM12 colon): 1.73 µM | TGI (KM12 colon): 3.5 µM | GI50 (LOX IMVI melanoma): 1.57 µM | TGI (LOX IMVI melanoma): 2.93 µM | GI50 (M14 melanoma): 1.8 µM | TGI (M14 melanoma): 4.04 µM | GI50 (MALME-3M melanoma): 2.64 µM | TGI (MALME-3M melanoma): 8.69 µM | GI50 (MCF7 breast): 2.2 µM | TGI (MCF7 breast): 5.64 µM | GI50 (MDA-MB-231 breast): 1.96 µM | TGI (MDA-MB-231 breast): 4.5 µM | GI50 (MDA-MB-435): 2.4 µM | TGI (MDA-MB-435): 6.67 µM | GI50 (MOLT-4 leukemia): 2.99 µM | TGI (MOLT-4 leukemia): 10.2 µM | GI50 (NCI-H226 lung): 2.62 µM | TGI (NCI-H226 lung): 7.85 µM | GI50 (NCI-H23 lung): 2.19 µM | TGI (NCI-H23 lung): 5.75 µM | GI50 (NCI-H460 lung): 1.88 µM | TGI (NCI-H460 lung): 3.7 µM | GI50 (NCI-H522 lung): 15.9 µM | TGI (NCI-H522 lung): 31.7 µM | GI50 (NCI/ADR-RES ovarian): 2.02 µM | TGI (NCI/ADR-RES ovarian): 4.6 µM | GI50 (OVCAR-4 ovarian): 3.42 µM | TGI (OVCAR-4 ovarian): 13.4 µM | GI50 (OVCAR-5 ovarian): 2.44 µM | TGI (OVCAR-5 ovarian): 6.7 µM | GI50 (PC-3 prostate): 2.91 µM | TGI (PC-3 prostate): 13.9 µM | GI50 (RPMI-8226 leukemia): 2.88 µM | TGI (RPMI-8226 leukemia): > 100 µM | GI50 (RXF 393 renal): 3.27 µM | TGI (RXF 393 renal): 18 µM | GI50 (SF-268 CNS): 6.61 µM | TGI (SF-268 CNS): 22.8 µM | GI50 (SF-295 CNS): 1.96 µM | TGI (SF-295 CNS): 3.77 µM | GI50 (SF-539 CNS): 2.15 µM | TGI (SF-539 CNS): 4.95 µM | GI50 (SK-MEL-2 melanoma): 2.5 µM | TGI (SK-MEL-2 melanoma): 7.68 µM | GI50 (SK-MEL-28 melanoma): 1.97 µM | TGI (SK-MEL-28 melanoma): 3.78 µM | GI50 (SK-MEL-5 melanoma): 16.1 µM | TGI (SK-MEL-5 melanoma): 30.7 µM | GI50 (SK-OV-3 ovarian): 13.9 µM | TGI (SK-OV-3 ovarian): 27.7 µM | GI50 (SN12C renal): 4.89 µM | TGI (SN12C renal): 18.6 µM | GI50 (SNB-19 CNS): 3.09 µM | TGI (SNB-19 CNS): 12 µM | GI50 (SNB-75 CNS): 5.02 µM | TGI (SNB-75 CNS): 19.6 µM | GI50 (SR leukemia): 1.87 µM | TGI (SR leukemia): 13.1 µM | GI50 (SW-620 colon): 1.68 µM | TGI (SW-620 colon): 3.24 µM | GI50 (TK-10 renal): 14 µM | TGI (TK-10 renal): 28.7 µM | GI50 (U251 CNS): 2.05 µM | TGI (U251 CNS): 4.7 µM | GI50 (UACC-257 melanoma): 10.6 µM | TGI (UACC-257 melanoma): 24.6 µM | GI50 (UACC-62 melanoma): 4.83 µM | TGI (UACC-62 melanoma): 17.8 µM | GI50 (UO-31 renal): 9.62 µM | TGI (UO-31 renal): 23.6 µM
